One assay has as its system Primary human T-cells. Put plainly: Primary Human T-Cell Proliferation Assay Stimulated with IL-2 (CellTiter-Glo). The conditions noted are these: read-out: IC50, Example 42. Type of assay: cell-based. In short, it runs like this: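 IC50 derived from CellTiter-Glo ATP signal after 72 hours of IL-2-driven proliferation at 37° C. Cells: primary human T-cells from blood, stimulated beforehand 3-4 days on anti-CD3/anti-CD28 with IL-2, then rested from IL-2 before compound exposure in duplicate; IL-2-free wells served as unstimulated control.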
(In ATP-based viability assays light output follows the ATP content of the culture.)

Assay [1] concerns IL-4 stimulated expression of CD23 in human Ramos B cells (JAK-1 and JAK-3). In words: Assay for Ramos B-Cell Line Stimulated with IL-4 (CD23 upregulation, FACS). It is filed as cell-based. The conditions noted are these: read-out: IC50, Example 41. In outline: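 Human Ramos B cells (5×10^4 per point, RPMI 5% serum) pre-incubated 1 h at 37 °C with compound or DMSO, then stimulated with IL-4 at 50 units/mL final for 20-24 h. CD23 upregulation measured by anti-CD23-PE staining and flow cytometry; IC50 derived.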

Where [2] appears, read: Homo sapiens, T-cell, primary human T-cell proliferation stimulated with IL-2.
[3] abbreviates: Homo sapiens, Ramos, Ramos B-cell line stimulated with IL-4, CD23 expression by FACS.

Like-named read-outs stand apart in the source and are kept apart here.

Usually IC50 stands for the concentration needed to halve the response being measured. On to `COc1ccc(CN2C(=O)C(C)Oc3ccc(Nc4nc(Nc5ccc(S(N)(=O)=O)cc5)ncc4F)cc32)cc1` (racemic) [Compound V-4, Racemic N2-(4-Aminosulphonylphenyl)-5-fluoro-N4-[2-methyl-3-oxo-4-(4-methoxybenzyl)-benz[1,4]oxazin-6-yl]-2,4-pyrimidinediamine], for which the 50% inhibitory concentration (IC50) was 1.54 µM in the assay on Primary human T-cells (primary human T-cells stimulated with IL-2, proliferation) and 0.108 µM in assay [1] (Ramos B cells stimulated with IL-4, CD23 expression by FACS).

As to `COc1cc(Nc2nc(Nc3ccc(S(N)(=O)=O)cc3)ncc2F)cc(OCC#N)c1OC` [Compound I-1, N2-(4-Aminosulphonylphenyl)-N4-(3-cyanomethoxy-4,5-dimethoxyphenyl)-5-fluoro-2,4-pyrimidinediamine], the concentration for half-maximal inhibition (IC50) worked out at 9.89 µM in the assay with Primary human T-cells (setting [2]) and 0.366 µM in assay [1] (setting [3]).

As for `N#CCOc1ccc(Nc2nc(Nc3ccc(S(N)(=O)=O)cc3)ncc2F)cc1F` [Compound I-44, N2-(4-Aminosulfonylphenyl)-N4-(4-cyanomethoxy-3-fluorophenyl)-5-fluoro-2,4-pyrimidinediamine], the concentration for half-maximal inhibition (IC50) with Primary human T-cells (setting [2]) was found to be 0.342 µM; in assay [1] (setting [3]) it was 0.0532 µM.

On to `COc1cc(Nc2nc(Nc3ccc(S(N)(=O)=O)cc3)ncc2F)ccc1OCC#N` [Compound I-45, N2-(4-Aminosulfonylphenyl)-N4-(4-cyanomethoxy-3-methoxyphenyl)-5-fluoro-2,4-pyrimidinediamine], for which the half-maximal inhibitory concentration (IC50) in the assay on Primary human T-cells (setting [2]) was 0.834 µM; in assay [1] (setting [3]) it was 0.104 µM.

With `COc1cc(Nc2nc(Nc3cccc(S(N)(=O)=O)c3)ncc2F)ccc1OCC#N` [Compound I-46, N2-(3-Aminosulfonylphenyl)-N4-(4-cyanomethoxy-3-methoxyphenyl)-5-fluoro-2,4-pyrimidinediamine], the values for the concentration for half-maximal inhibition (IC50) (in the assay on Primary human T-cells (setting [2]); in assay [1] (setting [3])) were 0.409 µM and 0.113 µM, respectively.

For `COc1cc(Nc2nc(Nc3ccc(C)c(S(N)(=O)=O)c3)ncc2F)ccc1OCC#N` [Compound I-47, N2-(3-Aminosulfonyl-4-methylphenyl)-N4-(4-cyanomethoxy-3-methoxyphenyl)-5-fluoro-2,4-pyrimidinediamine], the half-inhibitory concentration (IC50) is 0.551 µM in the assay on Primary human T-cells (setting [2]) and 0.12 µM in assay [1] (setting [3]).

`Cc1ccc(Nc2ncc(F)c(Nc3ccc(OCC#N)c(CO)c3)n2)cc1S(N)(=O)=O` [Compound I-51, N2-(3-Aminosulfonyl-4-methylphenyl)-N4-(4-cyanomethoxy-3-hydroxymethylphenyl)-5-fluoro-2,4-pyrimidinediamine]: the half-maximal inhibitory concentration (IC50) in the assay with Primary human T-cells (setting [2]) came to 2.12 µM; in assay [1] (setting [3]), 0.263 µM.

With `N#CCOc1ccc(Nc2nc(Nc3ccc(S(N)(=O)=O)cc3)ncc2F)cc1-c1ccn(CC#N)n1` [Compound I-52, N2-(4-Aminosulfonylphenyl)-N4-[4-cyanomethoxy-3-(1-cyanomethylpyrazol-3-yl)phenyl]-5-fluoro-2,4-pyrimidinediamine], the values for the IC50 (in the assay on Primary human T-cells (setting [2]); in assay [1] (setting [3])) were 5.3 µM and 0.152 µM, respectively.

As to `COc1ccc(Nc2ncc(F)c(Nc3ccc(OCC#N)cc3)n2)cc1S(N)(=O)=O` [Compound I-56, N2-(3-Aminosulfonyl-4-methoxyphenyl)-N4-(4-cyanomethoxyphenyl)-5-fluoro-2,4-pyrimidinediamine], the figures for the IC50 (in the assay on Primary human T-cells (setting [2]); in assay [1] (setting [3])) were 0.262 µM and 0.104 µM, respectively.

Take `Cc1cnc(Nc2cccc(S(N)(=O)=O)c2)nc1Nc1ccc(OCC#N)cc1` [Compound I-58, N2-(3-Aminosulfonylphenyl)-N4-(4-cyanomethoxyphenyl)-5-methyl-2,4-pyrimidinediamine]: the IC50 was 0.0192 µM in the assay with Primary human T-cells (setting [2]) and 0.00505 µM in assay [1] (setting [3]).

For the compound `Cc1ccc(Nc2ncc(C)c(Nc3ccc(OCC#N)cc3)n2)cc1S(N)(=O)=O` [Compound I-59, N2-(3-Aminosulfonyl-4-methylphenyl)-N4-(4-cyanomethoxyphenyl)-5-methyl-2,4-pyrimidinediamine], the IC50 with Primary human T-cells (setting [2]) was 0.0249 µM; in assay [1] (setting [3]) it was 0.00655 µM.

In the case of `NC(=O)COc1ccc(Nc2nc(Nc3ccc(S(N)(=O)=O)cc3)ncc2F)cc1Cl` [Compound I-97, N4-(4-Aminocarbonylmethoxy-3-chlorophenyl)-N2-(4-aminosulfonylphenyl)-5-fluoro-2,4-pyrimidinediamine], the half-maximal inhibitory concentration (IC50) is 0.869 µM in the assay with Primary human T-cells (setting [2]) and 0.212 µM in assay [1] (setting [3]).

Turning to `NC(=O)COc1ccc(Nc2nc(Nc3cccc(S(N)(=O)=O)c3)ncc2F)cc1Cl` [Compound I-98, N4-(4-Aminocarbonylmethoxy-3-chlorophenyl)-N2-(3-aminosulfonylphenyl)-5-fluoro-2,4-pyrimidinediamine], the concentration for half-maximal inhibition (IC50) in assay [1] (setting [3]) is 0.295 µM.

`Cc1ccc(Nc2ncc(F)c(Nc3ccc(OCC(N)=O)c(Cl)c3)n2)cc1S(N)(=O)=O` [Compound I-99, N4-(4-Aminocarbonylmethoxy-3-chlorophenyl)-N2-(3-aminosulfonyl-4-methylphenyl)-5-fluoro-2,4-pyrimidinediamine]: the IC50 with Primary human T-cells (setting [2]) worked out at 0.148 µM; in assay [1] (setting [3]), 0.0686 µM.

For `NC(=O)COc1ccc(Nc2nc(Nc3cccc(S(N)(=O)=O)c3)ncc2F)cc1F` [Compound I-101, N4-(4-Aminocarbonylmethoxy-3-fluorophenyl)-N2-(3-aminosulfonylphenyl)-5-fluoro-2,4-pyrimidinediamine], in assay [1] (setting [3]), the IC50 came to 0.328 µM.

As for `Cc1ccc(Nc2ncc(F)c(Nc3ccc(OCC(N)=O)c(F)c3)n2)cc1S(N)(=O)=O` [Compound I-102, N4-(4-Aminocarbonylmethoxy-3-fluorophenyl)-N2-(3-aminosulfonyl-4-methylphenyl)-5-fluoro-2,4-pyrimidinediamine], the IC50 stood at 0.211 µM in the assay with Primary human T-cells (setting [2]) and 0.219 µM in assay [1] (setting [3]).

`Cc1cnc(Nc2ccc(S(N)(=O)=O)cc2)nc1Nc1ccc(OCC(N)=O)cc1` [Compound I-108, N4-(4-Aminocarbonylmethoxyphenyl)-N2-(4-aminosulfonylphenyl)-5-methyl-2,4-pyrimidinediamine]: the IC50 stood at 0.148 µM in the assay with Primary human T-cells (setting [2]) and 0.145 µM in assay [1] (setting [3]).

Consider `Cc1cnc(Nc2cccc(S(N)(=O)=O)c2)nc1Nc1ccc(OCC(N)=O)cc1` [Compound I-109, N4-(4-Aminocarbonylmethoxyphenyl)-N2-(3-aminosulfonylphenyl)-5-methyl-2,4-pyrimidinediamine], for which the IC50 in the assay on Primary human T-cells (setting [2]) came to 0.203 µM; in assay [1] (setting [3]), 0.305 µM.

In the case of `Cc1ccc(Nc2ncc(C)c(Nc3ccc(OCC(N)=O)cc3)n2)cc1S(N)(=O)=O` [Compound I-110, N4-(4-Aminocarbonylmethoxyphenyl)-N2-(3-aminosulfonyl-4-methylphenyl)-5-methyl-2,4-pyrimidinediamine], the results for the IC50 (with Primary human T-cells (setting [2]); in assay [1] (setting [3])) were 0.253 µM and 0.358 µM, respectively.

On to `CN(C)C(=O)COc1ccc(Nc2nc(Nc3ccc(S(N)(=O)=O)cc3)ncc2F)cc1Cl` [Compound I-131, N2-(4-Aminosulfonylphenyl)-N4-(3-chloro-4-dimethylaminocarbonylmethoxyphenyl)-5-fluoro-2,4-pyrimidinediamine], for which the figures for the IC50 (with Primary human T-cells (setting [2]); in assay [1] (setting [3])) were 3.78 µM and 0.262 µM, respectively.

As to `CN(C)C(=O)COc1ccc(Nc2nc(Nc3cccc(S(N)(=O)=O)c3)ncc2F)cc1Cl` [Compound I-132, N2-(3-Aminosulfonylphenyl)-N4-(3-chloro-4-dimethylaminocarbonylmethoxyphenyl)-5-fluoro-2,4-pyrimidinediamine], the 50% inhibitory concentration (IC50) came out at 0.464 µM in the assay with Primary human T-cells (setting [2]) and 0.351 µM in assay [1] (setting [3]).

Regarding `Cc1cnc(Nc2ccc(S(N)(=O)=O)cc2)nc1Nc1ccc(OCC(=O)N(C)C)c(Cl)c1` [Compound I-134, N2-(4-Aminosulfonylphenyl)-N4-(3-chloro-4-dimethylaminocarbonylmethoxyphenyl)-5-methyl-2,4-pyrimidinediamine], the IC50 with Primary human T-cells (setting [2]) was determined as 0.51 µM; in assay [1] (setting [3]), 0.178 µM.

Turning to `Cc1cnc(Nc2cccc(S(N)(=O)=O)c2)nc1Nc1ccc(OCC(=O)N(C)C)c(Cl)c1` [Compound I-135, N2-(3-Aminosulfonylphenyl)-N4-(3-chloro-4-dimethylaminocarbonylmethoxyphenyl)-5-methyl-2,4-pyrimidinediamine], the IC50 in the assay on Primary human T-cells (setting [2]) is 0.104 µM; in assay [1] (setting [3]) it was 0.112 µM.

Consider `Cc1ccc(Nc2ncc(C)c(Nc3ccc(OCC(=O)N(C)C)c(Cl)c3)n2)cc1S(N)(=O)=O` [Compound I-136, N2-(3-Aminosulfonyl-4-methylphenyl)-N4-(3-chloro-4-dimethylaminocarbonylmethoxyphenyl)-5-methyl-2,4-pyrimidinediamine], for which the half-inhibitory concentration (IC50) came out at 0.196 µM in the assay on Primary human T-cells (setting [2]) and 0.132 µM in assay [1] (setting [3]).

Turning to `Cc1cnc(Nc2ccc(S(N)(=O)=O)cc2)nc1Nc1ccc(OCC(=O)N(C)C)c(F)c1` [Compound I-137, N2-(4-Aminosulfonylphenyl)-N4-(4-dimethylaminocarbonylmethoxy-3-fluorophenyl)-5-methyl-2,4-pyrimidinediamine], the IC50 with Primary human T-cells (setting [2]) stood at 1.1 µM; in assay [1] (setting [3]) it was 0.387 µM.

`Cc1cnc(Nc2cccc(S(N)(=O)=O)c2)nc1Nc1ccc(OCC(=O)N(C)C)c(F)c1` [Compound I-138, N2-(3-Aminosulfonylphenyl)-N4-(4-dimethylaminocarbonylmethoxy-3-fluorophenyl)-5-methyl-2,4-pyrimidinediamine]: the IC50 in the assay on Primary human T-cells (setting [2]) amounted to 0.223 µM; in assay [1] (setting [3]), 0.461 µM.

As for `Cc1ccc(Nc2ncc(C)c(Nc3ccc(OCC(=O)N(C)C)c(F)c3)n2)cc1S(N)(=O)=O` [Compound I-139, N2-(3-Aminosulfonyl-4-methylphenyl)-N4-(4-dimethylaminocarbonylmethoxy-3-fluorophenyl)-5-methyl-2,4-pyrimidinediamine], the 50% inhibitory concentration (IC50) turned out to be 0.24 µM with Primary human T-cells (setting [2]) and 0.375 µM in assay [1] (setting [3]).

Consider `Cc1cnc(Nc2ccc(Cl)c(S(N)(=O)=O)c2)nc1Nc1ccc(OCC(=O)N(C)C)c(Cl)c1` [Compound I-141, N2-(3-Aminosulfonyl-4-chlorophenyl)-N4-(3-chloro-4-dimethylaminocarbonylmethoxyphenyl)-5-methyl-2,4-pyrimidinediamine], for which the IC50 with Primary human T-cells (setting [2]) is 0.669 µM; in assay [1] (setting [3]) it was 0.163 µM.

Values taken from patent US11827628B2, “Compositions and methods for inhibition of the JAK pathway” (Rigel Pharmaceuticals, Inc., priority 2005, dated 2023).
